Values of other authors as cited in US8822870B2, “Dielectric insulation medium” (ABB Technology Ltd., priority 2010, dated 2014).

O=C(C(F)(F)C(F)(F)F)C(F)(C(F)(F)F)C(F)(F)F [C6-ketone, 1,1,1,2,4,4,5,5,5-Nonafluoro-2-(trifluoromethyl)pentan-3-one]
LC50 4 hours: about 100,000 ppm
